Test results published in patent US11306399B2, “Nanoparticle compositions” (JANUARY THERAPEUTICS, INC., priority 2019, dated 2022).

Test system: human patient-derived xenograft (PDX) derived from a human ovarian tumor (CTG-1180, Champions Oncology)
Experiment: In vivo xenograft efficacy (human ovarian tumor PDX) in tumor-bearing mice
Design: species or system Athymic Nude-Foxn1nu mice
Protocol: A nanoparticle composition comprising Compound 1 and albumin from Example 2 was tested in an in vivo xenograft efficacy model in tumor-bearing mice. Athymic Nude-Foxn1nu mice were implanted subcutaneously with a human patient-derived xenograft (PDX) derived from a human ovarian tumor (CTG-1180, Champions Oncology). Tumors were allowed grow to ˜200 cubic mm before commencement of treatment (day 0). Lyophilized nanoparticle formulations of Compound 1 were rehydrated in 5% dextrose in sterile water (D5W) immediately prior to dosing. Mice were then dosed intravenously with various concentrations of gemcitabine, nanoparticle formulation of Compound 1, or vehicle control (dissolved directly in D5W and dosed in mg of gemcitabine/compound 1 per kg of mouse body weight abbreviated as mpk) once weekly for 4 weeks (mice were dosed on day 0, 7, 14, and 21 with no treatments thereafter). […] Tumor volume was assessed by caliper measurement using the following formula: Tumor volume=width^2×length×0.52. Tumor growth inhibition (TGI) at day 28 was assessed using the following formula: […]. […]

Nc1ccn([C@@H]2O[C@H](CO)[C@@H](O)C2(F)F)c(=O)n1 [gemcitabine, 2′,2′-difluoro-2′-deoxycytidine]
Tumor growth inhibition (TGI) at day 28 (40 mpk (152 μmol/kg) intravenously once weekly for 4 weeks (day 0, 7, 14, 21)): 88% | Tumor growth inhibition (TGI) at day 28 (100 mpk (380 μmol/kg) intravenously once weekly for 4 weeks (day 0, 7, 14, 21)): 98%
